Holding throughout (assay type): cell-based
Assay [1] concerns the target T1, human sweet taste receptor (hT1R2/hT1R3) (Homo sapiens, UniProt Q7RTX0+Q8TE23, C757R/I191V/I486V/R317G).
T1 construct: expressed in transfected cells
T1 sequence (Q8TE23 20-839 I191V/R317G/I486V): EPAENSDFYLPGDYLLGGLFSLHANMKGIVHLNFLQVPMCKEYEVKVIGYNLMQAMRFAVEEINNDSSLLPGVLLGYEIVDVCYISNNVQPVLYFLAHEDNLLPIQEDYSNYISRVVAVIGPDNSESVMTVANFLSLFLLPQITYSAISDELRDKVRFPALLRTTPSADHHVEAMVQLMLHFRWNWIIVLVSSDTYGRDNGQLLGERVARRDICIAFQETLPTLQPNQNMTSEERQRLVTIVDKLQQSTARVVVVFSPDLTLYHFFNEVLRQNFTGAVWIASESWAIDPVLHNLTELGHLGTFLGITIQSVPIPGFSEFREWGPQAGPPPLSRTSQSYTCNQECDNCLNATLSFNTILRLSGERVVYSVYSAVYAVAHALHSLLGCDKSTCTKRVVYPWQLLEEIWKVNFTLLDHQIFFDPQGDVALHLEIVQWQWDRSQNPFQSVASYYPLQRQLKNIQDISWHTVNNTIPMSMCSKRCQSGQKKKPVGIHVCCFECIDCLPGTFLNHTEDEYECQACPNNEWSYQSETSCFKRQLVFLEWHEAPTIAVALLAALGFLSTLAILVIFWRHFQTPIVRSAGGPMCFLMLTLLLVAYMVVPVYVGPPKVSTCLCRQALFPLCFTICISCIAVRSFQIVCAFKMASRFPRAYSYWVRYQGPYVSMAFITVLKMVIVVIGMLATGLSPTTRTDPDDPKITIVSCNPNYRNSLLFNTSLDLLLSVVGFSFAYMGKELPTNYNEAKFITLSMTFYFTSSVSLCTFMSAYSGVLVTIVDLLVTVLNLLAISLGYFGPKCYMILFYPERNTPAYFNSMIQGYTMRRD
T1 sequence (Q7RTX0 21-852 C757R): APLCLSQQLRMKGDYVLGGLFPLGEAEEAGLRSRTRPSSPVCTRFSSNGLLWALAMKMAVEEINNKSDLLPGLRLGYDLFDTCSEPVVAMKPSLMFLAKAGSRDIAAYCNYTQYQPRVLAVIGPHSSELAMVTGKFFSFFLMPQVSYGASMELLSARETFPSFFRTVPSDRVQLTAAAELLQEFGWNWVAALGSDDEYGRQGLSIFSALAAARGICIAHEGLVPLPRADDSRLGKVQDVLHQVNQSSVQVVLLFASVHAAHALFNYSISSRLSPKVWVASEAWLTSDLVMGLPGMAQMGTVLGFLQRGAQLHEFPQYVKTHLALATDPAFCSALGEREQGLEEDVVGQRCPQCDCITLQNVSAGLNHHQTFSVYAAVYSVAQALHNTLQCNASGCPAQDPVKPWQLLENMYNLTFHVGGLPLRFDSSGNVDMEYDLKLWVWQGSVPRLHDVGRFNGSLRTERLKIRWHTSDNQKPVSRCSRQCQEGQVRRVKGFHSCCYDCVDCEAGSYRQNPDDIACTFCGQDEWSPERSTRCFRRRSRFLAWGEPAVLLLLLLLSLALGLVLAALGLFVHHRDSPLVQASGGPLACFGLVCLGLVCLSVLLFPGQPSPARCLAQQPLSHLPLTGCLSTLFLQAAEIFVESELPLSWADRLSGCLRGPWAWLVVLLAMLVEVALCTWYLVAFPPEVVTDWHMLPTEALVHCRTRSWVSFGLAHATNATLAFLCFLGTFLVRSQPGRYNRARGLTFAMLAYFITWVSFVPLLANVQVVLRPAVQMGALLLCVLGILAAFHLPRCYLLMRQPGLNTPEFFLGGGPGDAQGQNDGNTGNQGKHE
Description: Bias plotting analysis: DMR assay with R2/R3 U2OS cells vs FLIPR-calcium mobilization assay with R2/R3 U2OS cells expressing Gα15. Particulars: equimolar concentrations; data normalized to 1 mM sucralose; relative to other sweeteners. As for the experimental part:
(§1) Untransfected U2OS cells were cultured at 37° C. and 5% CO2 in McCoy's 5A medium (modified, GIBCO#16600) supplemented with 10% fetal bovine serum and penicillin/streptomycin. Plasmids encoding hT1R2 in pEAK10-puromycin and hT1R3 in pcDNA3.1-zeocin were linearized and transfected into U2OS cells followed by dilution and double selection in growth medium plus 0.5 μg/m1puromycin and 100 μg/mlzeocin. Individual colonies were expanded and transiently transfected with a Gα6gust25 expression construct to identify functional clones using sucralose as the agonist in a Ca2+ imaging assay. […] The lidded Epic® 384 microplate and polypropylene compound plate (Corning) were loaded into the carousel of the Epic® reader, the target plate was washed with DMSO matched D-PBS using the Corning Epic® Liquid Handling Accessory (LHA) and equilibrated in 25 μL of DMSO matched D-PBS for 90 minutes. After recording the baseline activity for 5 to 8 minutes, 25 μL of 2× concentrated solution of sweetener, agonist or a mixture of agonist and modulator, diluted in D-PBS, was added using the LHA and the DMR responses which measures a shift in the resonance wavelength, were monitored for an additional 30 minutes. […]
(§2) In FIG. 2A known sweeteners and new agonists were evaluated in the DMR assay with R2/R3 U2OS cells using a dose-response analysis. […]

In assay [2] the test system is parental U2OS cells. Put plainly: DMR assay (Epic reader) with parental U2OS cells. Particulars: parental (untransfected) U2OS cells, increasing concentrations. As for the experimental part: as §1, with “assay. […] (R2/R3 U2OS cells) were seeded on Epic®384 microplates (Corning) at a density of 16,000 cells/well in 40 pt of assay media using a multidrop (Thermo Scientific).” for “assay.”

In assay [3] the target is T1, human sweet taste receptor (hT1R2/hT1R3). Description: DMR assay (Epic reader) with R2/R3 U2OS cells. Particulars: increasing concentrations, no overexpressed G protein. As for the experimental part:
as §1, §2

Entries after “also recorded” stand apart in the source; their conditions may differ.

In the case of `COC(=O)[C@H](Cc1ccccc1)NC(=O)[C@H](CC(=O)O)NCCC(C)(C)C` [Neotame], in assay [1], the “Bias between FLIPR assay and DMR (EPIC) assay” value was “more active in the FLIPR assay; also recorded: clear bias for the FLIPR assay”.
The same measure, in the same setting: next, `CCCOc1ccc([N+](=O)[O-])cc1N` [P-4000]: “more active in the FLIPR assay; also recorded: clear bias for the FLIPR assay”.
Turning to `OC[C@H]1O[C@H](O[C@]2(CCl)O[C@H](CCl)[C@@H](O)[C@@H]2O)[C@H](O)[C@@H](O)[C@H]1Cl` [sucralose], the “DMR signal (shift in resonance wavelength)” value in assay [2] is “does not cause a comparable positive DMR signal”; in assay [3], “positive DMR signal”.

The record behind these values is US20230184746A1, “HIGH-SENSITIVITY DETECTION OF GPCR ACTIVITY AND USES THEREOF” (Firmenich Incorporated, priority 2020, published 2023).
